Results: ChEMBL document CHEMBL1201862, “PubChem BioAssay data set” (2004)
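How tested: cells in 96-well plates exposed to compound for 48 hours at five concentrations. Abbreviation: GI50, concentration required for 50% inhibition of growth.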 Activity calls are given as the source filed them. No stated cut-off is given here; in the data, active = GI50 up to about 1.1 µM and inactive = higher.

Key:
Test in all cases: NCI anticancer screen, dose series, 48 h
TK-10 = tested on: TK-10
A549 = tested on: A549
SW-620 = tested on: SW-620
UACC-257 = tested on: UACC-257
HOP-62 = tested on: HOP-62
OVCAR-8 = tested on: OVCAR-8
U-251 = tested on: U-251
HCT-116 = tested on: HCT-116
OVCAR-5 = tested on: OVCAR-5
KM12 = tested on: KM12
SK-OV-3 = tested on: SK-OV-3
NCI-H460 = tested on: NCI-H460
HOP-92 = tested on: HOP-92
T47D = tested on: T47D
COLO 205 = tested on: COLO 205
K562 = tested on: K562
NCI/ADR-RES = tested on: NCI/ADR-RES
RXF 393 = tested on: RXF 393
IGROV-1 = tested on: IGROV-1
UO-31 = tested on: UO-31

Measured: GI50

COC(=O)c1c(C)c2c(c(C)c1O)OC(=O)c1c(C)cc(O)c(C=O)c1O2
inactive: TK-10 > 100 µM | A549 > 100 µM | SW-620 > 100 µM | UACC-257 > 100 µM | HOP-62 > 100 µM | OVCAR-8 > 100 µM | U-251 > 100 µM | HCT-116 > 100 µM | OVCAR-5 > 100 µM | KM12 > 100 µM | SK-OV-3 20 µM | NCI-H460 > 100 µM | HOP-92 > 100 µM | T47D > 100 µM | COLO 205 > 100 µM | K562 > 100 µM | NCI/ADR-RES > 100 µM | RXF 393 > 100 µM | IGROV-1 69.7 µM

Cc1ccc(-c2cn3c(nc4ccccc43)c(/C=C/c3ccco3)n2)cc1
inactive: UO-31 > 100 µM | TK-10 > 100 µM | A549 > 100 µM | SW-620 47.6 µM | UACC-257 82.6 µM | HOP-62 > 100 µM | U-251 60.5 µM | HCT-116 > 100 µM | OVCAR-5 > 100 µM | KM12 50.1 µM | SK-OV-3 > 100 µM | NCI-H460 58.1 µM | HOP-92 > 100 µM | T47D 71.4 µM | COLO 205 61.7 µM | K562 37.7 µM | NCI/ADR-RES > 100 µM | RXF 393 > 100 µM | IGROV-1 62.1 µM

NCCCc1ccc2oc3ccccc3c2c1
inactive: UO-31 15.8 µM | TK-10 16.7 µM | A549 17.1 µM | SW-620 18.9 µM | UACC-257 17.9 µM | HOP-62 17.6 µM | OVCAR-8 22.7 µM | U-251 18.7 µM | HCT-116 15.3 µM | OVCAR-5 12.7 µM | SK-OV-3 17.1 µM | NCI-H460 17 µM | HOP-92 20.4 µM | T47D 17.7 µM | COLO 205 17.5 µM | K562 24.2 µM | NCI/ADR-RES 22.3 µM | RXF 393 17.9 µM | IGROV-1 20.6 µM

Cc1ccc(C2NC(=N)NC3=C2CCOc2c3ccc3ccccc23)cc1 (stereo unspecified)
inactive: UO-31 42.9 µM | TK-10 29.4 µM | A549 14.6 µM | SW-620 6.84 µM | UACC-257 31.3 µM | HOP-62 4.94 µM | OVCAR-8 33.6 µM | U-251 15.9 µM | HCT-116 1.93 µM | OVCAR-5 41.6 µM | KM12 4.21 µM | SK-OV-3 42 µM | NCI-H460 14.2 µM | HOP-92 5.66 µM | T47D 25.2 µM | COLO 205 20.8 µM | K562 2.19 µM | NCI/ADR-RES 15.1 µM | RXF 393 31.8 µM

Cc1ccc(/C=N\NC(=O)c2ccncc2)s1
inactive: UO-31 > 100 µM | TK-10 > 100 µM | A549 > 100 µM | SW-620 > 100 µM | UACC-257 > 100 µM | HOP-62 > 100 µM | OVCAR-8 > 100 µM | U-251 > 100 µM | HCT-116 > 100 µM | OVCAR-5 > 100 µM | KM12 > 100 µM | SK-OV-3 > 100 µM | NCI-H460 > 100 µM | HOP-92 > 100 µM | T47D > 100 µM | COLO 205 > 100 µM | K562 > 100 µM | NCI/ADR-RES > 100 µM | RXF 393 > 100 µM | IGROV-1 > 100 µM

COc1cccc(/N=N/C(=N\NC(=O)c2ccc(C)cc2)c2ccc(N(CCC#N)CCC#N)cc2C)c1
inactive: UO-31 59.8 µM | TK-10 > 100 µM | A549 > 100 µM | SW-620 > 100 µM | UACC-257 42.8 µM | HOP-62 72.8 µM | OVCAR-8 35.1 µM | U-251 > 100 µM | HCT-116 68.1 µM | OVCAR-5 > 100 µM | KM12 73.5 µM | SK-OV-3 48.2 µM | NCI-H460 > 100 µM | HOP-92 > 100 µM | T47D 41.1 µM | COLO 205 > 100 µM | K562 > 100 µM | NCI/ADR-RES > 100 µM | RXF 393 74.5 µM | IGROV-1 > 100 µM

N=C(N)SCCON1C(=O)c2ccccc2C1=O
inactive: UO-31 > 100 µM | TK-10 > 100 µM | A549 > 100 µM | SW-620 > 100 µM | UACC-257 > 100 µM | HOP-62 > 100 µM | OVCAR-8 > 100 µM | U-251 > 100 µM | HCT-116 > 100 µM | OVCAR-5 > 100 µM | KM12 > 100 µM | SK-OV-3 > 100 µM | NCI-H460 > 100 µM | HOP-92 > 100 µM | T47D > 100 µM | COLO 205 > 100 µM | K562 > 100 µM | NCI/ADR-RES > 100 µM | RXF 393 > 100 µM | IGROV-1 > 100 µM
